Measured values as given in EPA's CvTdb concentration-time database.
Several values for one entry are separate records, joined by “and”; a condition that tells them apart may be missing. Equal values may be shown once.

Experiments:
Test in all cases: concentration in blood after dosing
Conditions in all cases: dosed: isoflurane, 50000 ppm, dermal, duration: 4 hr, male, F344
rat [1] = system: rat
rat [2] = system: rat; remark: listed apart in the source
rat [3] = system: rat; remark: listed apart in the source
rat [4] = system: rat; remark: listed apart in the source
rat [5] = system: rat; remark: listed apart in the source
rat [6] = system: rat; remark: listed apart in the source

FC(F)OC(Cl)C(F)(F)F (stereo unspecified) [isoflurane]
concentration in blood (rat [1]; 0.5 h): 418 ng/mL | concentration in blood (rat [1]; 1 h): 1010 ng/mL | concentration in blood (rat [1]; 3 h): 1610 ng/mL | concentration in blood (rat [1]; 4 h): 516 ng/mL | concentration in blood (rat [2]; 0.5 h): 614 ng/mL | concentration in blood (rat [2]; 1 h): 810 ng/mL and 1520 ng/mL | concentration in blood (rat [2]; 2 h): 1610 ng/mL and 1420 ng/mL | concentration in blood (rat [2]; 3 h): 1520 ng/mL | concentration in blood (rat [2]; 4 h): 706 ng/mL | concentration in blood (rat [3]; 2 h): 1120 ng/mL | concentration in blood (rat [3]; 3 h): 1520 ng/mL | concentration in blood (rat [3]; 4 h): 1210 ng/mL | concentration in blood (rat [4]; 0.5 h): 19.6 ng/mL | concentration in blood (rat [4]; 2 h): 1730 ng/mL | concentration in blood (rat [4]; 3 h): 2030 ng/mL | concentration in blood (rat [4]; 4 h): 824 ng/mL | concentration in blood (rat [5]; 0.5 h): 510 ng/mL | concentration in blood (rat [5]; 1 h): 699 ng/mL | concentration in blood (rat [5]; 2 h): 1610 ng/mL | concentration in blood (rat [5]; 3 h): 1720 ng/mL | concentration in blood (rat [5]; 4 h): 915 ng/mL | concentration in blood (rat [6]; 0.5 h): 1120 ng/mL | concentration in blood (rat [6]; 1 h): 2500 ng/mL | concentration in blood (rat [6]; 2 h): 3610 ng/mL | concentration in blood (rat [6]; 3 h): 3220 ng/mL | concentration in blood (rat [6]; 4 h): 2520 ng/mL
